# Measurements published in US8580965B2, “Substituted sulfonamide compounds” (Gruenenthal GmbH, priority 2006, dated 2013).
# Key:
# [1] = biological target: T1, human B1R receptor (bradykinin 1 receptor) (Homo sapiens, UniProt P46663); experiment: FLIPR Ca2+ assay (Fluo-4) on CHO K1 cells stably transfected with the human B1R gene; % activation and % inhibition at 10 μM; assay type: cell-based; settings: CHO-K1, test substance 10 μM; CHO K1 hB1R cells; Ca2+ inflow after 0.5 nM Lys-Des-Arg9-bradykinin; read-out: B1R antagonism, human [10 μM] % inhibition
# T1 construct: host or cells: CHO K1 cells (hB1R cells)
# T1 sequence (P46663 1-353): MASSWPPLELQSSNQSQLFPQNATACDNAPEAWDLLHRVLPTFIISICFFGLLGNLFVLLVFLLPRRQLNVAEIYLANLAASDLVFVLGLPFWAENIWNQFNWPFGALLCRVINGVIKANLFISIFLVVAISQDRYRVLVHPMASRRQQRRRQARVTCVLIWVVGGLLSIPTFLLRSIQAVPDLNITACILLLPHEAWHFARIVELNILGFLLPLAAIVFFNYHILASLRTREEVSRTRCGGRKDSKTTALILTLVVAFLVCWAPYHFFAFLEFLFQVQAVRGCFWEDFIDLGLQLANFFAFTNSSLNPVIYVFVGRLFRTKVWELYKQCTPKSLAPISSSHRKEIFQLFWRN
# In short: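 Fluo-4 Ca2+ flux on FLIPR in stable hB1R or rB1R CHO K1 lines, two additions. Agonism: 10 µM compound versus 0.5 nM Lys-Des-Arg9-BK (human) or 100 nM Des-Arg9-BK (rat); antagonism: same agonists applied 10 min later, suppression expressed against maximum achievable inhibition.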
# [2] = biological target: T2, B1R receptor of the rat (bradykinin 1 receptor) (Rattus norvegicus, UniProt P97583); experiment: FLIPR Ca2+ assay (Fluo-4) on CHO K1 cells stably transfected with the B1R gene of the rat; % activation and % inhibition at 10 μM; assay type: cell-based; settings: CHO-K1, test substance 10 μM; CHO K1 rB1R cells; Ca2+ inflow after 100 nM Des-Arg9-bradykinin; read-out: B1R antagonism, rat [10 μM] % inhibition
# T2 construct: host or cells: CHO K1 cells (rB1R cells)
# T2 sequence (P97583 1-337): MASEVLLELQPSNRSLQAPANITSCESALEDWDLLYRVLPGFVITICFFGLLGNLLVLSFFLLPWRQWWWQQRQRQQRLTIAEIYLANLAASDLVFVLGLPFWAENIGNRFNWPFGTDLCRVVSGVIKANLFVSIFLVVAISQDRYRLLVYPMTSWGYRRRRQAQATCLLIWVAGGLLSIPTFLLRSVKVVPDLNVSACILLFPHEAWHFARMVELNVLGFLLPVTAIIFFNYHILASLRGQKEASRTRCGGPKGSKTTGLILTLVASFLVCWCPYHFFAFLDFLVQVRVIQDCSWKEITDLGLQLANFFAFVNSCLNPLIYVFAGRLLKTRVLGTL
# Protocol: The agonistic or antagonistic action of substances can be quantified on the bradykinin receptor 1 (B1R) of the species human and rat with ectopically expressing cell lines (CHO K1 cells) and with the aid of a Ca^2+-sensitive dye (Fluo-4) using a fluorescent imaging plate reader (FLIPR). The indication in % activation is based on the Ca^2+ signal after addition of Lys-Des-Arg^9-bradykinin (0.5 nM) or Des-Arg^9-bradykinin (100 nM). Antagonists result in a suppression of the Ca^2+ influx following administration of the agonist. The % inhibition in comparison with the maximum achievable inhibition is indicated.
# Functional Investigation on the Bradykinin 1 Receptor (B1R)
# The agonistic or antagonistic action of substances can be determined on the bradykinin 1 receptor (B1R) of the human and rat species with the following assay. According to this assay, the Ca^2+ inflow through the channel is quantified with the aid of a Ca^2+-sensitive dyes (Fluo-4 type, Molecular Probes Europe BV, Leiden, The Netherlands) in a fluorescent imaging plate reader (FLIPR, Molecular Devices, Sunnyvale, USA).
# Chinese Hamster Ovary cells (CHO K1 cells) which are stably transfected with the human B1R gene (hB1R cells, Euroscreen s.a., Gosselies, Belgium) or the B1R gene of the rat (rB1R cells, Axxam, Milan, Italy) are used. For functional investigations, these cells are plated-out on black 96-well plates with a clear base (BD Biosciences, Heidelberg, Germany) in a density of 20,000-25,000 cells/well. Overnight, the cells are incubated at 37° C. and 5% CO2 in culture medium (hB1R cells: Nutrient Mixture Ham's F12, Gibco Invitrogen GmbH, Karlsruhe, Germany; rB1R cells: D-MEM/F12, Gibco Invitrogen, Karlsruhe, Germany) with 10 vol. % FBS (foetal bovine serum, Gibco Invitrogen GmbH, Karlsruhe, Germany). On the following day, the cells are loaded with 2.13 μM Fluo-4 (Molecular Probes Europe BV, Leiden, The Netherlands) in HBSS buffer (Hank's buffered saline solution, Gibco Invitrogen GmbH, Karlsruhe, Germany) […] (Sigma-Aldrich, Taufkirchen, Germany) and 10 mM HEPES (Sigma-Aldrich, Taufkirchen, Germany) for 60 min at 37° C. The plates are subsequently washed 2× with HBSS buffer, and HBSS buffer which additionally contains 0.1% BSA (bovine serum albumin; Sigma-Aldrich, Taufkirchen, Germany), 5.6 mM glucose and 0.05% gelatine (Merck KGaA, Darmstadt, Germany) is added. After a further incubation of 20 minutes at room temperature, the plates are inserted into the FLIPR for Ca^2+ measurement. The Ca^2+-dependent fluorescence is measured here before and after addition of substances (λex=488 nm, λem=540 nm). The quantification is effected by measurement of the highest fluorescence intensity (FC, fluorescence counts) over time.
# The FLIPR protocol comprises 2 additions of substance. Test substances (10 μM) are first pipetted on to the cells and the Ca^2+ inflow is compared with the control (hB1R: Lys-Des-Arg^9-bradykinin 0.5 nM; rB1R: Des-Arg^9-bradykinin 100 nM). The value in % activation based on the Ca^2+ signal after addition of Lys-Des-Arg^9-bradykinin (0.5 nM) or Des-Arg^9-bradykinin (100 nM) is obtained therefrom. After incubation for 10 minutes, 0.5 nM Lys-Des-Arg^9-bradykinin (hB1R) or 100 nM Des-Arg^9-bradykinin (rB1R) are applied and the inflow of Ca^2+ is likewise determined. Antagonists lead to a suppression of the Ca^2+ inflow. % inhibition compared with the maximum inhibition which can be achieved is calculated. The compounds show a good activity on the human and on the rat receptor. The following data were determined by way of example: […]
inhibition at 10 µM [1],inhibition at 10 µM [2],SMILES
74.9%,79%,"Cc1cc(C)c(S(=O)(=O)N2CCCCC2COCC(=O)N2CCC(O)(c3cccnc3)CC2)c(C)c1 (centres unmarked) [Example 68, 1-(4′-hydroxy-3′,4′,5′,6′-tetrahydro-2′H-[3,4′]bipyridinyl-1′-yl)-2-[1-(2,4,6-trimethyl-phenylsulfonyl)-piperidin-2-ylmethoxy]-ethanone]"
9.45%,28.4%,"O=C(COCc1sccc1N(Cc1ccccc1)S(=O)(=O)c1ccc(Cl)c(Cl)c1)N1CCC(O)(Cc2ccccc2)CC1 [Example 69, N-benzyl-N-{2-[2-(4-benzyl-4-hydroxy-piperidin-1-yl)-2-oxo-ethoxymethyl]-thiophen-3-yl}-3,4-dichloro-phenylsulfonamide]"
7.12%,-12.2%,"CN(CCOCC(=O)N1CCC(O)(c2ccccn2)CC1)S(=O)(=O)c1cc(F)cc(F)c1 [Example 70, 3,5-difluoro-N-{2-[2-(4′-hydroxy-3′,4′,5′,6′-tetrahydro-2′H-[2,4′]bipyridinyl-1′-yl)-2-oxo-ethoxy]-ethyl}-N-methyl-phenylsulfonamide]"
-0.46%,4.46%,"CN(CCOCC(=O)N1CCC(O)(c2ccccn2)CC1)S(=O)(=O)c1cc(F)ccc1F [Example 71, 2,5-difluoro-N-{2-[2-(4′-hydroxy-3′,4′,5′,6′-tetrahydro-2′H-[2,4′]bipyridinyl-1′-yl)-2-oxo-ethoxy]-ethyl}-N-methyl-phenylsulfonamide]"
3.33%,18.7%,"O=C(COCC1Cc2ccccc2CN1S(=O)(=O)c1ccc(F)cc1)N1CCC(O)(c2ccccn2)CC1 (centres unmarked) [Example 72, 2-[2-(4-fluoro-phenylsulfonyl)-1,2,3,4-tetrahydro-isoquinolin-3-ylmethoxy]-1-(4′-hydroxy-3′,4′,5′,6′-tetrahydro-2′H-[2,4′]bipyridinyl-1′-yl)-ethanone]"

# Continued, molecule first:
SMILES,inhibition at 10 µM [1],inhibition at 10 µM [2]
"COc1ccc(S(=O)(=O)N2CCC(OCC(=O)N3CCC(O)(c4ccccn4)CC3)C2)cc1OC (centres unmarked) [Example 52, 2-[1-(3,4-dimethoxy-phenylsulfonyl)-pyrrolidin-3-yloxy]-1-(4′-hydroxy-3′,4′,5′,6′-tetrahydro-2′H-[2,4′]bipyridinyl-1′-yl)-ethanone]",-10%,11.9%
"CN(CCOCC(=O)N1CCC(O)(c2ccccn2)CC1)S(=O)(=O)c1ccc(F)cc1 [Example 56, 4-fluoro-N-{2-[2-(4′-hydroxy-3′,4′,5′,6′-tetrahydro-2′H-[2,4′]bipyridinyl-1′-yl)-2-oxo-ethoxy]-ethyl}-N-methyl-phenylsulfonamide]",-13.5%,-1.13%
"O=C(COC1CCN(S(=O)(=O)c2ccc(F)cc2)C1)N1CCC(O)(c2ccccn2)CC1 (centres unmarked) [Example 58, 2-[1-(4-fluoro-phenylsulfonyl)-pyrrolidin-3-yloxy]-1-(4′-hydroxy-3′,4′,5′,6′-tetrahydro-2′H-[2,4′]bipyridinyl-1′-yl)-ethanone]",-23.8%,-7.05%
"O=C(COC1CCN(S(=O)(=O)c2cccc(C(F)(F)F)c2)C1)N1CCC(O)(c2ccccn2)CC1 (centres unmarked) [Example 59, 1-(4′-hydroxy-3′,4′,5′,6′-tetrahydro-2′H-[2,4′]bipyridinyl-1′-yl)-2-[1-(3-trifluoromethyl-phenylsulfonyl)-pyrrolidin-3-yloxy]-ethanone]",-24%,16.6%
"Cc1ccc(F)cc1S(=O)(=O)N(C)CCOCC(=O)N1CCC(O)(c2ccc(Cl)cc2)CC1 [Example 61, N-(2-(2-(4-(4-chlorophenyl)-4-hydroxypiperidin-1-yl)-2-oxoethoxy)ethyl)-5-fluoro-N,2-dimethylphenylsulfonamide]",56.2%,86.4%
"Cc1ccc(F)cc1S(=O)(=O)N(C)CCOCC(=O)N1CCC(O)(Cc2ccccc2)CC1 [Example 62, N-{2-[2-(4-benzyl-4-hydroxy-piperidin-1-yl)-2-oxo-ethoxy]-ethyl}-5-fluoro-2,N-dimethyl-phenylsulfonamide]",7.47%,22.9%
"O=C(COCC1CCCCN1S(=O)(=O)c1cccc2ccccc12)N1CCC(O)(c2ccc(Cl)cc2)CC1 (centres unmarked) [Example 63, 1-(4-(4-chlorophenyl)-4-hydroxypiperidin-1-yl)-2-((1-(naphthalen-1-ylsulfonyl)piperidin-2-yl)methoxy)ethanone]",84.8%,91.8%
"O=C(COCC1CCCCN1S(=O)(=O)c1cccc2ccccc12)N1CCC(O)(Cc2ccccc2)CC1 (centres unmarked) [Example 64, 1-(4-benzyl-4-hydroxy-piperidin-1-yl)-2-[1-(naphthalene-1-sulfonyl)-piperidin-2-ylmethoxy]-ethanone]",69.2%,64.2%
"O=C(COCC1CCCCN1S(=O)(=O)c1cccc(C(F)(F)F)c1)N1CCC(O)(Cc2ccccc2)CC1 (centres unmarked) [Example 65, 1-(4-benzyl-4-hydroxy-piperidin-1-yl)-2-[1-(3-trifluoromethyl-phenylsulfonyl)-piperidin-2-ylmethoxy]-ethanone]",21%,25.8%
"Cc1cc(C)c(S(=O)(=O)N2CCCCC2COCC(=O)N2CCC(O)(c3ccc(Cl)cc3)CC2)c(C)c1 (centres unmarked) [Example 66, 1-(4-(4-chlorophenyl)-4-hydroxypiperidin-1-yl)-2-((1-(mesitylsulfonyl)piperidin-2-yl)methoxy)ethanone]",84.5%,99.2%
"Cc1cc(C)c(S(=O)(=O)N2CCCCC2COCC(=O)N2CCC(O)(Cc3ccccc3)CC2)c(C)c1 (centres unmarked) [Example 67, 1-(4-benzyl-4-hydroxy-piperidin-1-yl)-2-[1-(2,4,6-trimethyl-phenylsulfonyl)-piperidin-2-ylmethoxy]-ethanone]",55.4%,86.5%
